Data from patent publication US9993462B2, “Hydantoin derivative-containing pharmaceutical composition” (Chugai Seiyaku Kabushiki Kaisha, priority 2014, dated 2018).

Experiments:
[1] = system: human articular chondrocytes; assay: Proteoglycan synthesis by human articular chondrocytes (35S-sulfate incorporation); format: cell-based; conditions: cultured for 13 days
Description: After purchase of cryopreserved human articular chondrocytes (Lot 2867, Cell Applications Inc.), the cells were thawed in a 37° C. water bath, 15 mL of Basal Medium supplemented with 10% Growth Supplement (Growth Medium, Cell Applications Inc.) was placed in a T75 culture flask (CORNING, Corning Japan K. K.) to culture the cells, and exchanged the next day with 15 mL of Growth Medium; and the cells were cultured for three days. Growth Medium was then removed, and HBSS (Cell Applications Inc.) was used to wash the chondrocyte layer. With addition of 1 mL of trypsin/EDTA solution (Cell Applications Inc.), this was left to stand at room temperature for approximately five minutes, and chondrocytes were detached from the flask. With 10 mL of Neutralization solution (Cell Applications Inc.) added, Bulker-Turk hemocytometer was used to determine the cell count, and the cells were then transferred to a 15-mL test tube for centrifugation (1,200 rpm for five minutes, Tomy Seiko Co., Ltd.) to produce a chondrocyte pellet. The supernatant was discarded, and the cells were placed in a 1.2% sodium alginate solution (25 mmol/L HEPES/150 mmol/L sodium chloride solution, pH7.0) at 2×10^6 cells/mL. This was drawn into a 1-mL syringe (Terumo Corporation) equipped with a 22G injection needle, five drops were added to each well of a 24-well plate (Corning Japan K.K.) containing 2 mL of 102 mmol/L aqueous CaCl2 solution, and this was left to stand for five minutes to form beads. Subsequently, this was washed three times with a 150 mmol/L sodium chloride solution and incubated for one day in Growth Medium, and the medium was exchanged with Basal Medium supplemented with 1% Growth supplement (Cell Applications Inc.). In this procedure, the following factors were added to the medium, and the cells were cultured for 13 days with three times of medium exchange performed per week.
On day 12 of culturing, ^35S-labeled sulfuric acid (PerkinElmer Japan Co., Ltd.) was added at 370 kBq/well, and the medium was collected 24 hours later into a test tube and stored at 4° C. To the alginate gel, a 55 mmol/L sodium citrate solution (Nacalai Tesque, Inc.; 1 mL/well) was added, and this was incubated at 37° C. for ten minutes for solation. This was collected into a microtube (Eppendorf AG) and then centrifuged (1,200 rpm, five minutes) to produce a chondrocyte pellet. […] The glass filter was transferred to a liquid scintillation counter vial, 5 mL of scintillator (Hionic-Fluor, PerkinElmer Japan Co., Ltd.) was added and radioactivity was measured on a liquid scintillation counter (TRI-CARB, PerkinElmer Japan Co., Ltd.).
The remaining 0.1 mL of the digested solution was used for DNA quantification. […]

ovariectomized rats = assay: Bone mineral density after six weeks of repeated administration to ovariectomized rats; format: in vivo, rat; conditions: once a day for six weeks, hPTH(1-34) 0.9 nmol/kg subcutaneous
Description: Female Crl:CD(SD) rats obtained from Charles River Japan, Inc. were acclimated for one week or longer under standard laboratory conditions of 20° C. to 26° C. and 35% to 75% humidity, and then used in experiments. The rats had free access to tap water and a standard rodent diet (CE-2) (Clea Japan Inc.) containing 1.1% calcium, 1.0% phosphoric acid, and 250 IU/100 g vitamin D3.
Twelve-week old rats were subjected to removal of both ovaries by surgery (OVX) or to sham surgery (Sham). After the body weight was determined in the fourth week after surgery, the rats were divided into groups so that the average body weight of each group of six rats would be even. From the subsequent day after group division, each rat was subjected to repeated administration once a day for six weeks. The solvent for oral administration (vehicle) and the solvent for subcutaneous administration (PC buffer) were respectively administered orally and subcutaneously to rats of the Sham-Control group. Vehicle and PC buffer were orally and subcutaneously administered to rats of the OVX-Control group, respectively. To rats of OVX-Compound 7, the above-mentioned Compound 7 dissolved in the vehicle was orally administered at a dose of 30 mg/kg, and PC buffer was administered subcutaneously. To rats of the OVX-hPTH(1-34) group, the vehicle was orally administered, and hPTH(1-34) dissolved in PC buffer was subcutaneously administered at a dose of 0.9 nmol/kg.
The level of AUC (area under the curve for blood concentration vs. time) was the same as when 20 μg of Forteo®, a therapeutic agent clinically used for osteoporosis, is administered to humans when the administration dose for rats was set to 0.9 nmol/kg. The administration doses were 5 mL/kg for oral administration and 1 mL/kg for subcutaneous administration in all groups. The vehicle used was a composition prepared from 10% dimethyl sulfoxide (Wako Pure Chemical Industries, Ltd.), 10% Kolliphor EL (Sigma-Aldrich Japan), and 10% hydroxypropyl-β-cyclodextrin (Nihon Shokuhin Kako Co., Ltd), whose pH was adjusted to 10 using glycine (Wako Pure Chemical Industries, Ltd.) and sodium hydroxide (Wako Pure Chemical Industries, Ltd.). The PC buffer used was a composition prepared from 25 mmol/L phosphate-citrate buffer, 100 mmol/L NaCl, and 0.05% Tween80, adjusted to pH 5.0. […] The bone mineral densities of the lumbar spine and femur were determined using a dual X-ray bone mineral scanner (DCS-600EX, Aloka). The lumbar spine bone mineral density was determined by measuring the second to fourth lumbar vertebrae; and the femur bone mineral density was determined by vertically dividing the femur into ten parts, and measuring the three parts at the distal end of the knees. […]

[2] = system: rabbit articular chondrocytes; assay: Suppression of terminal differentiation of rabbit articular chondrocytes (alkaline phosphatase and alizarin red staining); format: cell-based; conditions: BMP-2 100 ng/mL, Compound 7 10^−7 to 10^−5 mol/L, PTH(1-34) 10^−10 to 10^−7 mol/L
Description: NZW rabbits (4-week old, Oriental Yeast Co., Ltd.) were euthanized, and then the articular cartilage of the lower leg bone was collected, and transferred to a 50-mL test tube (Nippon Becton Dickinson Company). PBS (Nacalai Tesque, Inc.) containing 1% trypsin (Wako Pure Chemical Industries, Ltd.) was added to this, and the soft tissue was digested at 37° C. for one hour. This was followed by centrifugation at 1,200 rpm for five minutes, then supernatant was removed and PBS(−) was added to suspend the cartilage tissue. This was centrifuged at 1,200 rpm for five minutes, followed by removal of the supernatant, and washed three times by suspending in PBS(−). This was centrifuged at 1,200 rpm for five minutes, and then the cell pellet was digested by treatment with DMEM (Life Technologies Japan, Ltd.) containing 0.2% Type II collagenase (CLS-2, Worthington Biochemical Corp.) at 37° C. for three hours. Fetal bovine serum (Life Technologies Japan, Ltd.) was added at 10% v/v to stop the reaction, and this was vigorously pipetted using a 10-mL pipette (Nippon Becton Dickinson Company) to isolate the chondrocytes. This was centrifuged at 1,200 rpm for five minutes, followed by removal of the supernatant, and washed three times by suspending in 10% FCS-containing DMEM, and the chondrocytes were seeded at 1×10^4 cells/well on an I-type collagen-coated 96-well culture plate (AGC TECHNO GLASS CO., LTD.). Medium exchange was performed three times a week; and after the cells reached confluency, they were cultured in DMEM containing 100 μg/mL L-ascorbic acid phosphate magnesium salt n-hydrate (Wako Pure Chemical Industries, Ltd.), 10 mmol/L β-glycerophosphate pentahydrate (Wako Pure Chemical Industries, Ltd.) and 10% FCS. The following conditions were used to culture the cells, and alkaline phosphatase staining (cultured for 14 days) and alizarin red staining (cultured for 21 days) were performed to evaluate terminal differentiation of chondrocytes.
Alkaline phosphatase staining was performed by discarding the medium, then washing the chondrocytes once with 200 mmol/L Tris-HCl pH8.2 buffer, staining the cells according to the protocol supplied with the alkaline phosphatase staining kit (Vector Red Alkaline Phosphatase Substrate Kit I, Vector Laboratories, Inc.), and taking photographs with an inverted microscope (Nikon Corporation) (4× objective).
Alizarin red staining was performed by discarding the medium, then washing the chondrocytes twice with PBS, fixing the cells using 100% ethanol (Wako Pure Chemical Industries Ltd.) for 15 minutes, discarding the ethanol, and then staining with 1% alizarin red S (Wako Pure Chemical Industries Ltd.) for 15 minutes, followed by washing with distilled water; and photographs were taken with an inverted microscope.

Row | Substance | radioactivity (proteoglycan synthesis, cpm/μg DNA) relative to the vehicle control ([1]; TGF-β1 10 ng/mL) [fold] | percentage of increase in femur bone mineral density with respect to the OVX-Control group (ovariectomized rats; Compound 7 30 mg/kg oral) [%] | percentage of increase in lumbar spine bone mineral density with respect to the OVX-Control group (ovariectomized rats) [%] | alkaline phosphatase activity (alkaline phosphatase staining) ([2]; cultured for 14 days) | alizarin red staining property (calcification) ([2]; cultured for 21 days) | radioactivity (proteoglycan synthesis, cpm/μg DNA) relative to the vehicle control ([1]; PTH(1-34) 10^−8 mol/L) [fold]
1 | TGF-β1: Positive control for proteoglycan synthesis, 10 ng/mL [reference compound] | 10 | – | – | – | – | –
2 | hPTH(1-34): Human PTH(1-34) peptide purchased from Peptide Institute, Inc.; positive control [reference compound] | – | 8 | 12 | suppressed alkaline phosphatase activity in a concentration-dependent manner | suppressed the alizarin staining property in a concentration-dependent manner | 6
